# Values quoted from earlier work in patent US12285520B2, “Product and manufacturing process for a gum” (McNeil AB, priority 2020, dated 2025).
# Conditions: nicotine; stated as general knowledge, no experiment described
smiles,measurement,value
CN1CCCC1c1cccnc1 (stereo not shown) [nicotine],pKa,approximately 7.8
